≈ marks a conversion by molar mass, not a printed value. Where “and” joins values, the source holds several entries; their conditions need not be identical. Equal values may be shown once.
Legend:
[1] = target: T1, Sensor histidine kinase WalK (Bacillus subtilis (strain 168), UniProt Q45614); assay: Inhibition of Bacillus subtilis histidine kinase YycG
T1 sequence (Q45614 whole entry): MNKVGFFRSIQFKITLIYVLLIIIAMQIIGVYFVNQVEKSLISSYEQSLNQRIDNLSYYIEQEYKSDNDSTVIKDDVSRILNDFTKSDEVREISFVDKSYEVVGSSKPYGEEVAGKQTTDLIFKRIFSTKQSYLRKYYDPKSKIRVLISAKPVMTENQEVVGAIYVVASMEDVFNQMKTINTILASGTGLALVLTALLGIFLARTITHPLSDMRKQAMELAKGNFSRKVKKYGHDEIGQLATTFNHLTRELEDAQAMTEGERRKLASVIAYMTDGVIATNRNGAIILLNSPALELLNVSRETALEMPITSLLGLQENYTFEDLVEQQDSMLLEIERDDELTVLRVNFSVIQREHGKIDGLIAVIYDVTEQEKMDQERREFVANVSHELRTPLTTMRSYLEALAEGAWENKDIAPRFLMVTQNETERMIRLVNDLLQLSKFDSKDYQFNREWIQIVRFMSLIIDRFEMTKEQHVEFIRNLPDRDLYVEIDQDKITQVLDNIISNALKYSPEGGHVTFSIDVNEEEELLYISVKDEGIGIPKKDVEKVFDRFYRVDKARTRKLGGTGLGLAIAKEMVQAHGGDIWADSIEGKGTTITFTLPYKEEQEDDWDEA

Staphylococcus aureus = assay: Antibacterial activity against methicillin-resistant staphylococcus aureus 870307 after 18 hrs by broth microdilution method; format: functional
Enterococcus faecalis = assay: Antibacterial activity against vancomycin-resistant Enterococcus faecalis NCTC-12201 after 18 hrs by broth microdilution method; format: functional

Compound | IC50 [1] | MIC (Staphylococcus aureus) | MIC (Enterococcus faecalis)
C/C(Br)=C\CC/C(C)=C/CC(C)(C)/C=C/CO | > 1660 µM | > 100 µg/mL | > 100 µg/mL
COC(=O)[C@H](Cc1ccc(O)cc1)NC(=O)/C=C/C(C)(C)C/C=C(\C)CC/C=C(\C)Br | > 1020 µM | > 100 µg/mL | > 100 µg/mL
COC(=O)[C@H](CC(C)C)NC(=O)/C=C/C(C)(C)C/C=C(\C)CC/C=C(\C)Br | > 1130 µM | > 100 µg/mL | > 100 µg/mL
COC(=O)[C@H](CC(=O)O)NC(=O)/C=C/C(C)(C)C/C=C(\C)CC/C=C(\C)Br | > 1130 µM | > 100 µg/mL | > 100 µg/mL
COC(=O)[C@H](C)NC(=O)/C=C/C(C)(C)C/C=C(\C)CC/C=C(\C)Br | > 1250 µM | > 100 µg/mL | > 100 µg/mL
COC(=O)[C@H](CCC(=O)O)NC(=O)/C=C/C(C)(C)C/C=C(\C)CC/C=C(\C)Br | > 1090 µM | > 100 µg/mL | > 100 µg/mL
C/C(Br)=C\CC/C(C)=C/CC(C)(C)/C=C/C(=O)N[C@H](C(=O)O)C(C)C | < 603 µM | > 100 µg/mL | > 100 µg/mL
C/C(Br)=C\CC/C(C)=C/CC(C)(C)/C=C/C(=O)N[C@@H](Cc1c[nH]c2ccccc12)C(=O)O | 43.9 µM | 100 µg/mL (≈ 199 µM) | 50 µg/mL (≈ 99.7 µM)
C/C(Br)=C\CC/C(C)=C/CC(C)(C)/C=C/C(=O)O | 63.4 µM and 63.5 µM | > 100 µg/mL | > 100 µg/mL
CCCCCCCCN(CCCCCCCC)C(=O)/C=C/C(C)(C)C/C=C(\C)CC/C=C(\C)Br | > 928 µM | > 100 µg/mL | > 100 µg/mL
CCCCCCCCOC(=O)/C=C/C(C)(C)C/C=C(\C)CC/C=C(\C)Br | > 1170 µM | > 100 µg/mL | > 100 µg/mL
CC[C@H](C)[C@H](NC(=O)/C=C/C(C)(C)C/C=C(\C)CC/C=C(\C)Br)C(=O)O | > 1170 µM | > 100 µg/mL | > 100 µg/mL
COC(=O)[C@@H]1CCCN1C(=O)/C=C/C(C)(C)C/C=C(\C)CC/C=C(\C)Br | < 586 µM | > 100 µg/mL | > 100 µg/mL
C/C(Br)=C\CC/C(C)=C/CC(C)(C)/C=C/C(=O)N[C@@H](Cc1ccccc1)C(=O)O | < 541 µM | > 100 µg/mL | > 100 µg/mL
C/C(Br)=C\CC/C(C)=C/CC(C)(C)/C=C/C(=O)N[C@@H](CC(C)C)C(=O)O | > 1170 µM | > 100 µg/mL | > 100 µg/mL
COC(=O)/C=C/C(C)(C)C/C=C(\C)CC/C=C(\C)Br | > 1520 µM | > 100 µg/mL | > 100 µg/mL
CSCC[C@H](NC(=O)/C=C/C(C)(C)C/C=C(\C)CC/C=C(\C)Br)C(=O)O | < 560 µM | > 100 µg/mL | > 100 µg/mL
C/C1=C\CC(C)(C)/C=C/C(=O)/C(C)=C/CC1 [ZERUMBONE] | > 2290 µM | > 100 µg/mL | > 100 µg/mL
COC(=O)[C@H](CCSC)NC(=O)/C=C/C(C)(C)C/C=C(\C)CC/C=C(\C)Br | > 1090 µM | > 100 µg/mL | > 100 µg/mL
C/C(Br)=C\CC/C(C)=C/CC(C)(C)/C=C/C(=O)N[C@@H](Cc1ccc(O)cc1)C(=O)O | < 523 µM | > 100 µg/mL | > 100 µg/mL
C/C(Br)=C\CC/C(C)=C/CC(C)(C)/C=C/C(=O)N[C@@H](C)C(=O)O | < 647 µM | > 100 µg/mL | > 100 µg/mL

Compound | IC50 [1] | MIC (Staphylococcus aureus) | MIC (Enterococcus faecalis)
COC(=O)[C@H](CCC(N)=O)NC(=O)/C=C/C(C)(C)C/C=C(\C)CC/C=C(\C)Br | 1090 µM | > 100 µg/mL | > 100 µg/mL
C/C(Br)=C\CC/C(C)=C/CC(C)(C)/C=C/C(=O)N1CCCCC1 | > 1310 µM | > 100 µg/mL | > 100 µg/mL
CCCCN(CCCC)C(=O)/C=C/C(C)(C)C/C=C(\C)CC/C=C(\C)Br | > 1170 µM | > 100 µg/mL | > 100 µg/mL
COC(=O)[C@H](CC(N)=O)NC(=O)/C=C/C(C)(C)C/C=C(\C)CC/C=C(\C)Br | 1130 µM | > 100 µg/mL | > 100 µg/mL
CC[C@H](C)[C@H](NC(=O)/C=C/C(C)(C)C/C=C(\C)CC/C=C(\C)Br)C(=O)OC | > 1130 µM | > 100 µg/mL | > 100 µg/mL
C/C(Br)=C\CC/C(C)=C/CC(C)(C)/C=C/C(=O)N[C@@H](CCC(N)=O)C(=O)O | < 564 µM | > 100 µg/mL | > 100 µg/mL
COC(=O)[C@H](CO)NC(=O)/C=C/C(C)(C)C/C=C(\C)CC/C=C(\C)Br | < 600 µM | > 100 µg/mL | > 100 µg/mL
C/C(Br)=C\CC/C(C)=C/CC(C)(C)/C=C/C(=O)N1CCC[C@H]1C(=O)O | < 606 µM | > 100 µg/mL | > 100 µg/mL
C/C(Br)=C\CC/C(C)=C/CC(C)(C)/C=C/C(=O)N[C@@H](CC(=O)O)C(=O)O | < 581 µM | > 100 µg/mL | > 100 µg/mL
COC(=O)[C@H](Cc1cnc[nH]1)NC(=O)/C=C/C(C)(C)C/C=C(\C)CC/C=C(\C)Br | > 1070 µM | > 100 µg/mL | > 100 µg/mL
COC(=O)[C@@H](NC(=O)/C=C/C(C)(C)C/C=C(\C)CC/C=C(\C)Br)C(C)C | > 1170 µM | > 100 µg/mL | > 100 µg/mL
COC(=O)[C@H](Cc1c[nH]c2ccccc12)NC(=O)/C=C/C(C)(C)C/C=C(\C)CC/C=C(\C)Br | > 970 µM | > 100 µg/mL | > 100 µg/mL
C/C(Br)=C\CC/C(C)=C/CC(C)(C)/C=C/C(=O)N[C@@H](Cc1cnc[nH]1)C(=O)O | < 553 µM | > 100 µg/mL | > 100 µg/mL
C/C(Br)=C\CC/C(C)=C/CC(C)(C)/C=C/C(=O)N[C@@H](CO)C(=O)O | < 621 µM | > 100 µg/mL | > 100 µg/mL
C/C(Br)=C\CC/C(C)=C/CC(C)(C)/C=C/C(=O)N[C@@H](CCC(=O)O)C(=O)O | < 563 µM | > 100 µg/mL | > 100 µg/mL
COC(=O)CNC(=O)/C=C/C(C)(C)C/C=C(\C)CC/C=C(\C)Br | > 1290 µM | > 100 µg/mL | > 100 µg/mL
COC(=O)[C@@H](NC(=O)/C=C/C(C)(C)C/C=C(\C)CC/C=C(\C)Br)[C@@H](C)O | > 1160 µM | > 100 µg/mL | > 100 µg/mL
C/C(Br)=C\CC/C(C)=C/CC(C)(C)/C=C/C(=O)N[C@H](C(=O)O)[C@@H](C)O | > 1200 µM | > 100 µg/mL | > 100 µg/mL
C/C(Br)=C\CC/C(C)=C/CC(C)(C)/C=C/C(=O)NCC(=O)O | < 671 µM | > 100 µg/mL | > 100 µg/mL
COC(=O)[C@H](Cc1ccccc1)NC(=O)/C=C/C(C)(C)C/C=C(\C)CC/C=C(\C)Br | > 1050 µM | > 100 µg/mL | > 100 µg/mL
C/C(Br)=C\CC/C(C)=C/CC(C)(C)/C=C/C(=O)N[C@@H](CC(N)=O)C(=O)O | < 582 µM | > 100 µg/mL | > 100 µg/mL

From ChEMBL document CHEMBL1139052, “Synthesis of a novel inhibitor against MRSA and VRE: preparation from zerumbone ring opening material showing histidine-kinase inhibition” (Bioorg Med Chem Lett, 2007)
